What was measured:
[1] = Autosampler stability at 4 °C of extracted antibiotic-spiked plasma/CAMHB samples; details: for Mean accuracy (%), Table S8 / Mean accuracy (%), Table S10: CAMHB extracted samples; for Mean accuracy (%), Table S8 / Mean accuracy (%), Table S7: 7 h autosampler 4 °C; for Mean accuracy (%), Table S10 / Mean accuracy (%), Table S9: 15 h autosampler 4 °C; for Mean accuracy (%), Table S7 / Mean accuracy (%), Table S9: plasma extracted samples
Method: (§1) The stability of fosfomycin in combination with other antibiotics in plasma/CAMHB was evaluated under various operational conditions. Spiked plasma/CAMHB samples were evaluated at 7 h and 15 h in the autosampler at 4 °C. Long-term stability was evaluated up to 4 weeks of antibiotic-spiked plasma/CAMHB samples at LQC, MQC, and HQC concentrations stored at −30 °C and −80 °C.

[2] = 32-day stability of stock solutions stored at −80 °C; assay type: physicochemical; details: stock solution stored at -80 °C; peak area Day 32 vs Day 1
Method: Stability of stock solutions
All stock solutions of antibiotics and their corresponding stable-isotope variants were measured prior to cold storage at -80 °C and tested at 32 days later.
Stability was determined by comparing the peak area of each drug between its Day 1 and Day 32 measurement. Acceptable criteria for stability was met if the […]

[3] = Long-term storage stability of antibiotics in combination with fosfomycin spiked in plasma/CAMHB (−30 °C, −80 °C); assay type: physicochemical; details: for Stability verdict (within ±15% of nominal): CAMHB samples stored at −30 °C; for Mean accuracy (%), Table S15 / Mean accuracy (%), Table S17 / Mean accuracy (%), Table S16 / Mean accuracy (%), Table S18: CAMHB; for Mean accuracy (%), Table S15 / Mean accuracy (%), Table S17 / Mean accuracy (%), Table S16 / Mean accuracy (%), Table S18 / Mean accuracy (%), Table S11 / Mean accuracy (%), Table S13 / Mean accuracy (%), Table S12 / Mean accuracy (%), Table S14: combination with fosfomycin; for Mean accuracy (%), Table S15 / Mean accuracy (%), Table S11: 2 weeks at -30 °C; for Mean accuracy (%), Table S17 / Mean accuracy (%), Table S13: 2 weeks at -80 °C; for Mean accuracy (%), Table S16 / Mean accuracy (%), Table S12: 4 weeks at -30 °C; for Mean accuracy (%), Table S18 / Mean accuracy (%), Table S14: 4 weeks at -80 °C; for Mean accuracy (%), Table S11 / Mean accuracy (%), Table S13 / Mean accuracy (%), Table S12 / Mean accuracy (%), Table S14: plasma
Method: as §1

[4] = HQC: nominal mg/L CAZ 150, FEP 200, PIP 250, ATM 300, MEM 200, DOR 175, LVX 30, CEFT 250, TZB 87.5, TGC 20, AVI 30, FOF 1000
[5] = LQC: nominal 1 mg/L (levofloxacin, avibactam 0.5; fosfomycin 10)
[6] = MQC: nominal mg/L CAZ 75, FEP 100, PIP 150, ATM 150, MEM 100, DOR 87.5, LVX 15, CEFT 125, TZB 43.75, TGC 10, AVI 15, FOF 500

Compound	Mean accuracy (%), Table S8 ([1]; HQC (nominal as E15)) [%]	Mean accuracy (%), Table S8 ([1]; LQC (nominal as E13)) [%]	Mean accuracy (%), Table S8 ([1]; MQC (nominal as E14)) [%]	Mean accuracy (%), Table S10 ([1]; HQC (nominal as E15)) [%]	Mean accuracy (%), Table S10 ([1]; LQC (nominal as E13)) [%]	Mean accuracy (%), Table S10 ([1]; MQC (nominal as E14)) [%]	Mean accuracy (%), Table S7 [1, 4] [%]	Mean accuracy (%), Table S7 [1, 5] [%]	Mean accuracy (%), Table S7 [1, 6] [%]	32 Day Stability (%) [2] [%]	Mean accuracy (%), Table S15 ([3]; HQC (nominal as E15)) [%]	Mean accuracy (%), Table S15 ([3]; LQC (nominal as E13)) [%]	Mean accuracy (%), Table S15 ([3]; MQC (nominal as E14)) [%]	Mean accuracy (%), Table S17 ([3]; HQC (nominal as E15)) [%]	Mean accuracy (%), Table S17 ([3]; LQC (nominal as E13)) [%]	Mean accuracy (%), Table S17 ([3]; MQC (nominal as E14)) [%]	Mean accuracy (%), Table S16 ([3]; HQC (nominal as E15)) [%]	Mean accuracy (%), Table S16 ([3]; LQC (nominal as E13)) [%]	Mean accuracy (%), Table S16 ([3]; MQC (nominal as E14)) [%]	Mean accuracy (%), Table S18 ([3]; HQC (nominal as E15)) [%]	further results
C[C@@H](O)[C@H]1C(=O)N2C(C(=O)O)=C(S[C@@H]3CN[C@H](CNS(N)(=O)=O)C3)[C@H](C)[C@H]12 [Doripenem, doripenem]	103.1	104.8	105.2	103.0	108.0	111.3	98.9	104.0	100.7	99.13	82.4	73.1	77.1	100.1	104.0	103.9	64.1	64.6	60.6	105.8	Stability verdict (within ±15% of nominal) ([3]; 2 weeks): instability; Stability verdict (within ±15% of nominal) ([3]; 4 weeks): instability; Mean accuracy (%), Table S18 ([3]; LQC (nominal as E13)): 99.1%; Mean accuracy (%), Table S18 ([3]; MQC (nominal as E14)): 104.7%; Mean accuracy (%), Table S11 ([3]; HQC (nominal as E15)): 98.0%; Mean accuracy (%), Table S11 ([3]; LQC (nominal as E13)): 91.0%; Mean accuracy (%), Table S11 ([3]; MQC (nominal as E14)): 97.0%; Mean accuracy (%), Table S13 ([3]; HQC (nominal as E15)): 98.3%; Mean accuracy (%), Table S13 ([3]; LQC (nominal as E13)): 100.6%; Mean accuracy (%), Table S13 ([3]; MQC (nominal as E14)): 96.9%; Mean accuracy (%), Table S12 ([3]; HQC (nominal as E15)): 102.4%; Mean accuracy (%), Table S12 ([3]; LQC (nominal as E13)): 100.0%; Mean accuracy (%), Table S12 ([3]; MQC (nominal as E14)): 103.1%; Mean accuracy (%), Table S14 ([3]; HQC (nominal as E15)): 106.3%; Mean accuracy (%), Table S14 ([3]; LQC (nominal as E13)): 99.2%; Mean accuracy (%), Table S14 ([3]; MQC (nominal as E14)): 106.9%
Cn1c(N)c(NC(=O)NCCN)c[n+]1CC1=C(C(=O)O)N2C(=O)[C@@H](NC(=O)/C(=N\OC(C)(C)C(=O)[O-])c3nsc(N)n3)[C@H]2SC1 [Ceftolozane, ceftolozane]	113.3	106.4	109.8	112.0	107.2	111.3	105.1	106.0	97.2	107.69	93.2	91.3	94.7	94.1	91.4	94.3	90.8	86.1	90.4	93.9	Mean accuracy (%), Table S9 ([1]; HQC (nominal as E15)): 101.0%; Mean accuracy (%), Table S9 ([1]; LQC (nominal as E13)): 97.5%; Mean accuracy (%), Table S9 ([1]; MQC (nominal as E14)): 90.0%; Mean accuracy (%), Table S18 ([3]; LQC (nominal as E13)): 87.5%; Mean accuracy (%), Table S18 ([3]; MQC (nominal as E14)): 96.2%; Mean accuracy (%), Table S11 ([3]; HQC (nominal as E15)): 86.5%; Mean accuracy (%), Table S11 ([3]; LQC (nominal as E13)): 86.9%; Mean accuracy (%), Table S11 ([3]; MQC (nominal as E14)): 86.4%; Mean accuracy (%), Table S13 ([3]; HQC (nominal as E15)): 86.3%; Mean accuracy (%), Table S13 ([3]; LQC (nominal as E13)): 91.1%; Mean accuracy (%), Table S13 ([3]; MQC (nominal as E14)): 87.7%; Mean accuracy (%), Table S12 ([3]; HQC (nominal as E15)): 99.3%; Mean accuracy (%), Table S12 ([3]; LQC (nominal as E13)): 99.0%; Mean accuracy (%), Table S12 ([3]; MQC (nominal as E14)): 98.6%; Mean accuracy (%), Table S14 ([3]; HQC (nominal as E15)): 100.8%; Mean accuracy (%), Table S14 ([3]; LQC (nominal as E13)): 89.3%; Mean accuracy (%), Table S14 ([3]; MQC (nominal as E14)): 98.0%
C[C@H]1COc2c(N3CCN(C)CC3)c(F)cc3c(=O)c(C(=O)O)cn1c23 [Levofloxacin, levofloxacin]	98.8	113.0	103.4	99.5	112.8	103.9	101.3	110.7	105.2	98.42	–	–	–	–	–	–	–	–	–	–	Mean accuracy (%), Table S9 ([1]; HQC (nominal as E15)): 103.6%; Mean accuracy (%), Table S9 ([1]; LQC (nominal as E13)): 114.0%; Mean accuracy (%), Table S9 ([1]; MQC (nominal as E14)): 106.1%
NC(=O)[C@@H]1CC[C@@H]2CN1C(=O)N2OS(=O)(=O)O [Avibactam, avibactam]	106.4	108.8	104.2	107.5	108.3	104.9	96.2	105.4	100.7	102.63	90.4	93.7	89.1	95.3	101.2	95.4	80.6	82.3	80.6	98.6	Mean accuracy (%), Table S9 ([1]; HQC (nominal as E15)): 95.6%; Mean accuracy (%), Table S9 ([1]; LQC (nominal as E13)): 103.4%; Mean accuracy (%), Table S9 ([1]; MQC (nominal as E14)): 99.3%; Stability verdict (within ±15% of nominal) ([3]; 4 weeks): instability; Mean accuracy (%), Table S18 ([3]; LQC (nominal as E13)): 103.0%; Mean accuracy (%), Table S18 ([3]; MQC (nominal as E14)): 98.2%; Mean accuracy (%), Table S11 ([3]; HQC (nominal as E15)): 93.9%; Mean accuracy (%), Table S11 ([3]; LQC (nominal as E13)): 100.6%; Mean accuracy (%), Table S11 ([3]; MQC (nominal as E14)): 99.4%; Mean accuracy (%), Table S13 ([3]; HQC (nominal as E15)): 95.2%; Mean accuracy (%), Table S13 ([3]; LQC (nominal as E13)): 105.1%; Mean accuracy (%), Table S13 ([3]; MQC (nominal as E14)): 100.4%; Mean accuracy (%), Table S12 ([3]; HQC (nominal as E15)): 87.3%; Mean accuracy (%), Table S12 ([3]; LQC (nominal as E13)): 100.2%; Mean accuracy (%), Table S12 ([3]; MQC (nominal as E14)): 92.6%; Mean accuracy (%), Table S14 ([3]; HQC (nominal as E15)): 92.9%; Mean accuracy (%), Table S14 ([3]; LQC (nominal as E13)): 101.0%; Mean accuracy (%), Table S14 ([3]; MQC (nominal as E14)): 94.5%

Reference: article PMC8772704, “Quantification of Fosfomycin in Combination with Nine Antibiotics in Human Plasma and Cation-Adjusted Mueller-Hinton II Broth via LCMS” (Antibiotics, 2022)
